Laboratory results taken from ChEMBL document CHEMBL1201862, “PubChem BioAssay data set” (2004).
Activity calls are given as the source filed them. How the calls were made is not given here.

Experiments:
Format in all cases: functional
[1] = target: T1, Rac GTPase-activating protein 1 (Homo sapiens, UniProt Q9H0H5); experiment: MgcRacGAP GTPase-activating activity inhibitors, confirmation, biochemical, ADP Hunter fluorescence, primary and confirmatory (AID 624330)
T1 sequence (Q9H0H5 whole entry): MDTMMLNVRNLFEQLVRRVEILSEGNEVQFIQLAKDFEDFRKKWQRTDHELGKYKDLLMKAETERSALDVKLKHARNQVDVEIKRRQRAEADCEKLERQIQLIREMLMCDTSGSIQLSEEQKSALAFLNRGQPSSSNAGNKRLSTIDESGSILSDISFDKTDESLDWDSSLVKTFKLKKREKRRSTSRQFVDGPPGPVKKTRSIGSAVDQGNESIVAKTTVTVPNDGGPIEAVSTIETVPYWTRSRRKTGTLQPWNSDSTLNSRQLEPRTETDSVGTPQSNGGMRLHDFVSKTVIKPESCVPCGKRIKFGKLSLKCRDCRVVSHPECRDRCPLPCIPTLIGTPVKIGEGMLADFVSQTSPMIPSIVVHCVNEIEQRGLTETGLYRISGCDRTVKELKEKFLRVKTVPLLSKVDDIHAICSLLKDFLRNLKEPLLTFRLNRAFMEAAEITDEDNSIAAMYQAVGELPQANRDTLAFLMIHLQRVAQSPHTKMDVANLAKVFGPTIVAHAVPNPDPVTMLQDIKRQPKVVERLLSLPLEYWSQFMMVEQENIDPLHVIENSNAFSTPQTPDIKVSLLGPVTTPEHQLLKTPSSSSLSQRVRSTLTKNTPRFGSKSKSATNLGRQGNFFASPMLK

[2] = target: Serine/threonine-protein kinase PLK4 (Homo sapiens, UniProt O00444);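 further: PLK4 measured as one member of a kinome-wide kinase profiling panel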
[3] = target: Tyrosine-protein kinase SYK (Homo sapiens, UniProt P43405)
[4] = target: Serine/threonine-protein kinase Chk2 (Homo sapiens, UniProt O96017);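 further: CHEK2 entry within a kinome-wide screening panel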
[5] = target: MAP kinase-activated protein kinase 2 (Homo sapiens, UniProt P49137);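 further: measured as one member of a kinome-wide kinase panel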
[6] = target: Tyrosine-protein kinase JAK3 (Homo sapiens, UniProt P52333)
[7] = target: Rho-associated protein kinase 1 (Homo sapiens, UniProt Q13464);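 further: measured within a broad kinome-wide panel profiling many kinases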
[8] = target: Dual specificity tyrosine-phosphorylation-regulated kinase 1A (Homo sapiens, UniProt Q13627);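 further: measured against DYRK1A as one member of a broad kinome profiling panel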
[9] = target: Inhibitor of nuclear factor kappa-B kinase subunit epsilon (Homo sapiens, UniProt Q14164); experiment: Navigating the Kinome. Panel member name: IKBKE
[10] = target: Calcium/calmodulin-dependent protein kinase type II subunit alpha (Homo sapiens, UniProt Q9UQM7); experiment: Navigating the Kinome. Panel member name: CAMK2A
[11] = target: Tyrosine-protein kinase FRK (Homo sapiens, UniProt P42685);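 further: FRK tested as one member of a kinome panel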
Tyrosine-protein kinase FRK, sequence (P42685 whole entry): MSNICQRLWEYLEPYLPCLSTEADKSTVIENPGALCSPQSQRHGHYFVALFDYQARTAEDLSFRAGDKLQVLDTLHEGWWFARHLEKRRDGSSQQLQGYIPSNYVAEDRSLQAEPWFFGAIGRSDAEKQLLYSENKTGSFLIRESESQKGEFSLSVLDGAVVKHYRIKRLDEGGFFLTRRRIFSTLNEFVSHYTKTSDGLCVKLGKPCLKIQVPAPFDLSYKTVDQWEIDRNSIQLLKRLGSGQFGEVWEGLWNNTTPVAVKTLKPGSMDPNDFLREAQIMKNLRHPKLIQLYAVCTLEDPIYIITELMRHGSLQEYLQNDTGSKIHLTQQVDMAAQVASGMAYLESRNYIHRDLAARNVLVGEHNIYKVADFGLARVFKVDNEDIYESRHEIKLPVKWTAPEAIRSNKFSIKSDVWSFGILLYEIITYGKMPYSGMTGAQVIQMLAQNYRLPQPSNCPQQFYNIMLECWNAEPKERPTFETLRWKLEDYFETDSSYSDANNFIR

Rho-associated protein kinase 1, sequence (Q13464 whole entry): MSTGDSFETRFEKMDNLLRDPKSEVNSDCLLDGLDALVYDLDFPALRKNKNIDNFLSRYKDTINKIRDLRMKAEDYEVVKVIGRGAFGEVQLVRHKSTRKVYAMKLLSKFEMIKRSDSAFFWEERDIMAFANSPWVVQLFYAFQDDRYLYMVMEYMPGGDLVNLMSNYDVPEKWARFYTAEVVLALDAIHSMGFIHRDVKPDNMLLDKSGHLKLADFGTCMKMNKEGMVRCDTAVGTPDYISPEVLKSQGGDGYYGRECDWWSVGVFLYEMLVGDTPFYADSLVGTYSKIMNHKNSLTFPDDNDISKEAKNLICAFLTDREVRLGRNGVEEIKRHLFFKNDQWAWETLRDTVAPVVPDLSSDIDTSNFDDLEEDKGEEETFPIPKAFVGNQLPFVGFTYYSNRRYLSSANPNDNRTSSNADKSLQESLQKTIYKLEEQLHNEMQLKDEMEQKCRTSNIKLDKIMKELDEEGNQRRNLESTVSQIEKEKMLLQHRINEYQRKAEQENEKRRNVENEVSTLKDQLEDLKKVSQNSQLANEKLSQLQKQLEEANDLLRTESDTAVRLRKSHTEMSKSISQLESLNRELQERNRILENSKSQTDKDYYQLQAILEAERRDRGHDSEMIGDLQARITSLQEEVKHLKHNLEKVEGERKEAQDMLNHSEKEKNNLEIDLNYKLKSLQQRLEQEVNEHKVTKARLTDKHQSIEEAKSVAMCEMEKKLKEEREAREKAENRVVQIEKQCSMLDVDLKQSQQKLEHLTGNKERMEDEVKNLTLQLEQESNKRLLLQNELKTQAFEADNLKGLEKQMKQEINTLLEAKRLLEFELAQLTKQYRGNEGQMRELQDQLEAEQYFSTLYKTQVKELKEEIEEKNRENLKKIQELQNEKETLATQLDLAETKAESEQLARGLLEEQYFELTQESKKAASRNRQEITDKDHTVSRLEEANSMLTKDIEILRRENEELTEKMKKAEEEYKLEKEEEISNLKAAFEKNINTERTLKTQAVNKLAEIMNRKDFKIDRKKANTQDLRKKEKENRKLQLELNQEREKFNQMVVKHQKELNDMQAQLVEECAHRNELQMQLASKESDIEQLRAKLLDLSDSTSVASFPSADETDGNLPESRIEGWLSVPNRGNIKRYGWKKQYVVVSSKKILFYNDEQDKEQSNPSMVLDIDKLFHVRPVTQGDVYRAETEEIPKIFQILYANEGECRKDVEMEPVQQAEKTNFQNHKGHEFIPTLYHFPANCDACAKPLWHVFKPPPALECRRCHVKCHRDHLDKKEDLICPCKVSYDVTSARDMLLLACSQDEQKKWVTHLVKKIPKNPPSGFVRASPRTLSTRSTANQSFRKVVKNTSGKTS
Serine/threonine-protein kinase PLK4, sequence (O00444 whole entry): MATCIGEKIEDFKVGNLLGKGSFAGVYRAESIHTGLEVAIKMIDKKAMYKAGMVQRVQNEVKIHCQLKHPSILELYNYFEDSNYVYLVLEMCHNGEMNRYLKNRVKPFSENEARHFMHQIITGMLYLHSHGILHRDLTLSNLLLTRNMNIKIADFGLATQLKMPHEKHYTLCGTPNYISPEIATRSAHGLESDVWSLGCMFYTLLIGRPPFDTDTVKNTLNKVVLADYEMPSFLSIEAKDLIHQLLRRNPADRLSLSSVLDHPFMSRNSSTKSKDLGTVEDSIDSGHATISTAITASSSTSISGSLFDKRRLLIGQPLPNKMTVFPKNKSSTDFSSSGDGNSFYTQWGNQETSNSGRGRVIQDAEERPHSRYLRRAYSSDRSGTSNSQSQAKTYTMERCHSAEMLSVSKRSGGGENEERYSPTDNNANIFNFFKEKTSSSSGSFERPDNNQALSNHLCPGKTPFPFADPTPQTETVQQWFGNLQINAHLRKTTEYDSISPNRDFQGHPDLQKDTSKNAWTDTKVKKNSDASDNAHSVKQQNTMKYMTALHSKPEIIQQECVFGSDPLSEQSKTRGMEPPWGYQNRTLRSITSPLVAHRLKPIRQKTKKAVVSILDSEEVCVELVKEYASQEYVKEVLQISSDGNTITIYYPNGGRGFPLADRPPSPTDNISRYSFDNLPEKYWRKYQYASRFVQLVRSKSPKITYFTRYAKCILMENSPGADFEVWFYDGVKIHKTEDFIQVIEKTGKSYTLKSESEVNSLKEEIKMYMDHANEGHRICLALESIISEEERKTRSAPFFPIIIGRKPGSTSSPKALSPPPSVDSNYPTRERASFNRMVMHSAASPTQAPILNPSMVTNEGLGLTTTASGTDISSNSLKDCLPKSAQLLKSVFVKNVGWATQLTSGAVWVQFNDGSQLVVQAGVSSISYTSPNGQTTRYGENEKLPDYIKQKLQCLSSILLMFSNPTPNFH
MAP kinase-activated protein kinase 2, sequence (P49137 whole entry): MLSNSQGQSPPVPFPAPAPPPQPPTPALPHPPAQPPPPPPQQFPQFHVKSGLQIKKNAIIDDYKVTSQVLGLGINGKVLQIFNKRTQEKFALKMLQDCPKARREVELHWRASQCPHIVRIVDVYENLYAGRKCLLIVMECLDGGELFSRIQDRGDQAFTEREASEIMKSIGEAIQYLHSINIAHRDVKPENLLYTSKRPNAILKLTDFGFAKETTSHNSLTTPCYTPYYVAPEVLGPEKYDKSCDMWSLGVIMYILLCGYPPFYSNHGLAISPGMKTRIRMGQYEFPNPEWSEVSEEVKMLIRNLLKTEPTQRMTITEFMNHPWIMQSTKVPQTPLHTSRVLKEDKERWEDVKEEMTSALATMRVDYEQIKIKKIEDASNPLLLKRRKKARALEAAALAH
Tyrosine-protein kinase JAK3, sequence (P52333 whole entry): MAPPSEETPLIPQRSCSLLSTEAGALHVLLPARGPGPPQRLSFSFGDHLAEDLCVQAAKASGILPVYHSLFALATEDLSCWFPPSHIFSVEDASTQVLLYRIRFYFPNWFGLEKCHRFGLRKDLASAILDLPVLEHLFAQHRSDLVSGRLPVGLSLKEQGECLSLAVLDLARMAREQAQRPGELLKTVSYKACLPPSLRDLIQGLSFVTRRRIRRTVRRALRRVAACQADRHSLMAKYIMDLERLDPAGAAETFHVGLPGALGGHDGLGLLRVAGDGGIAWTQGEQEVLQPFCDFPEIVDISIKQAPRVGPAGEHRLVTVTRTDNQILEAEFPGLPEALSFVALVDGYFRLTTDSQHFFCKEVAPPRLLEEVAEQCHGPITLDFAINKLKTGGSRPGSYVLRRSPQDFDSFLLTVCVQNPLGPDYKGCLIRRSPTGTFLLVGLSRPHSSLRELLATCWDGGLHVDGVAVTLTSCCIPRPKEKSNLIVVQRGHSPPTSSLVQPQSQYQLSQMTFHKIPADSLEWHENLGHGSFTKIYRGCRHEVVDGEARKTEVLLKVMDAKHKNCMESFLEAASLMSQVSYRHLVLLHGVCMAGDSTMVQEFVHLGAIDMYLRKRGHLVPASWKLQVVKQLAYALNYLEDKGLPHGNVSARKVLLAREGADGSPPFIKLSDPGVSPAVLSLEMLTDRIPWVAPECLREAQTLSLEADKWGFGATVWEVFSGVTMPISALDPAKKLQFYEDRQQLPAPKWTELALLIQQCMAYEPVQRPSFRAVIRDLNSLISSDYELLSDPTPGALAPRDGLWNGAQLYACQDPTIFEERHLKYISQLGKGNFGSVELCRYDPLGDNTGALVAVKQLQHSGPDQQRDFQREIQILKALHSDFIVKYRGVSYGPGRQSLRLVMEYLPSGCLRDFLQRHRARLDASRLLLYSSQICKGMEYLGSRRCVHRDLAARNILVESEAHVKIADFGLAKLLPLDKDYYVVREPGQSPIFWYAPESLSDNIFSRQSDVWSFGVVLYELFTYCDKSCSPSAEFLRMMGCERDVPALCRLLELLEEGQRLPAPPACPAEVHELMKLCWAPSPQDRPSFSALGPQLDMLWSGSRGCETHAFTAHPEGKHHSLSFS
Inhibitor of nuclear factor kappa-B kinase subunit epsilon, sequence (Q14164 whole entry): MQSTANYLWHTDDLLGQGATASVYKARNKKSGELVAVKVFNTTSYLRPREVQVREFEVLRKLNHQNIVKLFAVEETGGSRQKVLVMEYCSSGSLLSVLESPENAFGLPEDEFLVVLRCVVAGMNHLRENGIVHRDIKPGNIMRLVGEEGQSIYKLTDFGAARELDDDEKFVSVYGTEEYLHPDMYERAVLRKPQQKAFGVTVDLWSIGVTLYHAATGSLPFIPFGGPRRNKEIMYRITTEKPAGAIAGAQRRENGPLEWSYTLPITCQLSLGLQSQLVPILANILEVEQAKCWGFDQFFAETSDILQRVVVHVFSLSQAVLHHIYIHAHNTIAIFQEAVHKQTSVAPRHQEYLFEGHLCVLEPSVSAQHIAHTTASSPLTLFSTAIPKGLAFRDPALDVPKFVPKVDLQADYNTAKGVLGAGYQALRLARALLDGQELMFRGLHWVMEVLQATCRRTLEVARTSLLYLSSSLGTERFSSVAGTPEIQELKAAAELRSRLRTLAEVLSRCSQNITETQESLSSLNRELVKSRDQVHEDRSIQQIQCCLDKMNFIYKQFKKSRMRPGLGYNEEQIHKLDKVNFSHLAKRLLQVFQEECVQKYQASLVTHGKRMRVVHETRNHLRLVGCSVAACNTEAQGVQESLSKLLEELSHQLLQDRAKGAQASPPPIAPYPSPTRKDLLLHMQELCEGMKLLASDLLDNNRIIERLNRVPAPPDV

Ki [2]	Ki [3]	Ki [4]	Ki [5]	Ki [6]	Ki [7]	Ki [8]	Ki [9]	Ki [10]	Ki [11]	Structure (SMILES)	IC50 [1]
										Cc1ccc(/C=C2/C(=O)c3ccc(C(=O)O)cc3C2=O)o1	294000 nM (active)
> 3980 nM (inactive)	316 nM (active)	316 nM (active)	2510 nM (active)	> 2000 nM (inactive)	> 100 nM (inactive)	631 nM (active)	> 3160 nM (inactive)	> 3160 nM (inactive)	> 2510 nM (inactive)	Clc1cc(NC2CCCCC2)nc(-c2c[nH]c3ncccc23)n1	
